From PubChem BioAssay (NCI)
Several values for one entry are separate records, joined by “and”; a condition that tells them apart may be missing. Equal entries are not always repeated.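 All cell lines were grown in 96-well plates and treated with compound for 48 hours. Abbreviation: GI50, concentration required for 50% inhibition of growth. TGI marks complete inhibition of growth.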

Legend:
Assay in all cases: NCI anticancer screen, dose series, 48 h
A549 NSCLC = test system: A549 NSCLC
KM12 colon = test system: KM12 colon
EKVX NSCLC = test system: EKVX NSCLC
HT29 colon = test system: HT29 colon
MDA-MB-435 = test system: MDA-MB-435
TK-10 renal = test system: TK-10 renal
MALME-3M melanoma = test system: MALME-3M melanoma
SK-MEL-2 melanoma = test system: SK-MEL-2 melanoma
SR leukemia = test system: SR leukemia
T-47D breast = test system: T-47D breast

Compound | GI50 (A549 NSCLC) | TGI (A549 NSCLC) | GI50 (KM12 colon) | TGI (KM12 colon) | GI50 (EKVX NSCLC) | TGI (EKVX NSCLC) | GI50 (HT29 colon) | TGI (HT29 colon) | GI50 (MDA-MB-435) | TGI (MDA-MB-435) | GI50 (TK-10 renal) | TGI (TK-10 renal) | GI50 (MALME-3M melanoma) [µM] | TGI (MALME-3M melanoma) | GI50 (SK-MEL-2 melanoma) | TGI (SK-MEL-2 melanoma) | GI50 (SR leukemia) [µM] | TGI (SR leukemia) | GI50 (T-47D breast) | TGI (T-47D breast)
C#CCOc1cccc(Nc2ncnc3c(NC(=O)C=C)cccc23)c1 | 30.9 µM | > 100 µM | 20.3 µM | > 100 µM | 28.3 µM | > 100 µM | 19.3 µM | 98.8 µM | 7.14 µM | 77.7 µM | 19.2 µM | 69.2 µM | 18.5 | 52 µM | 19.8 µM | 63.7 µM | 4.37 | > 100 µM | 18.2 µM | 78.4 µM
Nc1cc(Br)c(-c2nnc(CCC(=O)c3nc4ccccc4[nH]3)o2)c(Br)c1 | 27.6 µM | > 100 µM | 3.71 µM | 18 µM | 23.1 µM | > 100 µM | 19.2 µM | 83.5 µM | 1.56 µM | 3.71 µM | 36.5 µM | > 100 µM | 2.06 | 17.2 µM | 4.3 µM | > 100 µM | 4.2 | > 100 µM | 23.4 µM | > 100 µM
CC(C)[C@H](O)C(=O)N[C@@H](C)C(=O)N[C@@H]1C(=O)N(C)CCc2ccccc21 | > 100 µM | > 100 µM | > 100 µM | > 100 µM | > 100 µM | > 100 µM | > 100 µM | > 100 µM | > 100 µM | > 100 µM | > 100 µM | > 100 µM | > 100 | > 100 µM | > 100 µM | > 100 µM | > 100 | > 100 µM | > 100 µM | > 100 µM
CN(C)C(=S)SSC(=S)N(C)C | 17.2 µM and 3.51 µM and 19.7 µM | 45.9 µM and > 100 µM and 48.1 µM |  | 24.7 µM and 11.1 µM and 45.4 µM | 22 µM and > 73.4 µM and 18.6 µM | 96.3 µM and > 100 µM and 35.1 µM | 0.112 µM and 0.29 µM | > 54.9 µM and 30.7 µM | 15.6 µM and 8.04 µM and 21.1 µM | 38.6 µM and 33.5 µM and > 56.7 µM | 16.1 µM and > 100 µM and 26.4 µM | 30.6 µM and > 100 µM and > 70.6 µM | 16.3 | 34.7 µM and 50.1 µM and 31 µM | 34.2 µM and 57 µM and 17 µM | > 100 µM and 39.4 µM |  | 74.6 µM and 27.8 µM and 34.8 µM | 15.9 µM | 41.7 µM and 39 µM and 88.2 µM
CC(C)CC(C/C=C1/CC(CO)(COC(=O)C(C)(C)C)OC1=O)CC(C)C (stereo not drawn) | 1.07 µM and 0.515 µM | 16.1 µM and 11.2 µM | 13.7 µM and 14.8 µM | 29.3 µM and 33.2 µM | 1.25 µM and 0.247 µM | 10.7 µM and 7 µM | 10.3 µM and 2.55 µM | 23.2 µM and 18.6 µM |  | 18.3 µM and 15 µM | 1.58 µM and 0.543 µM | 15.7 µM and 1.97 µM |  |  |  | 30.3 µM and 24.3 µM |  | 26.4 µM |  | 40.5 µM and 23.9 µM
CCC(C)(O)c1cnc(CC(C)C)c(=O)n1O (stereo not drawn) |  | > 100 µM |  | > 100 µM |  | > 100 µM |  | > 100 µM |  | > 100 µM |  | > 100 µM |  |  |  | > 100 µM |  | 62.6 µM |  | > 100 µM
NNCCc1ccc(NC(=O)CCCc2ccc(C(=O)Nc3ccccc3N)cc2)cc1 | 31.9 µM | > 100 µM | 29.1 µM | > 100 µM | 51.1 µM | > 100 µM | 4.07 µM | > 100 µM | 9.71 µM | > 100 µM | 2.03 µM | > 100 µM | 2.71 | 50.8 µM | 7.49 µM | > 100 µM | 3.24 | > 100 µM | 4.34 µM | > 100 µM
OC(c1cc(-c2ccc(C(F)(F)F)cc2)nc(C(F)(F)F)c1)C1CCCCN1 (stereo not drawn) | 1.84 µM and 2.05 µM | 3.4 µM and 4.92 µM |  | 3.13 µM and 3.35 µM | 1.96 µM and 4.22 µM | 4.3 µM and 11.6 µM | 1.65 µM | 3.22 µM and 3.87 µM | 1.67 µM | 3.05 µM and 3.42 µM | 1.72 µM and 2.16 µM | 3.23 µM and 4.95 µM |  | 3.28 µM and 3.38 µM |  | 3.42 µM and 3.49 µM | 0.362 | 2.17 µM and 4.69 µM | 1.66 µM and 2.33 µM | 3.31 µM and 6.2 µM
CCCc1cc(=O)n2c(C(=O)Nc3ccc(Cl)cc3C)c(C(=O)Nc3ccc(F)cc3)sc2n1 | 2.63 µM | 5.95 µM | 13.5 µM | > 150 µM | 21.3 µM | > 150 µM | 12.2 µM | > 150 µM | 20.9 µM | > 150 µM | 12.3 µM | 39.3 µM | 5.12 | 20.7 µM | 4.13 µM | 21.9 µM | 0.943 | 3.75 µM | 20 µM | 132 µM
CN(C)CCNCCN |  | > 100 µM |  | > 100 µM |  | > 100 µM |  | > 100 µM |  | > 100 µM |  | > 100 µM |  | > 100 µM |  | > 100 µM |  | > 100 µM |  | > 100 µM
O=C1CCCN1c1ccccc1I(=O)=O | > 100 µM | > 100 µM | > 100 µM | > 100 µM | > 100 µM | > 100 µM | > 100 µM | > 100 µM | > 100 µM | > 100 µM | > 100 µM | > 100 µM | > 100 | > 100 µM | > 100 µM | > 100 µM | 95.6 | > 100 µM | 91.4 µM | > 100 µM
O=C(/C=C/c1ccccc1)c1ccccc1 |  | > 10 µM |  | > 10 µM |  | > 10 µM |  | > 10 µM |  | > 10 µM |  | > 10 µM |  | > 10 µM |  | > 10 µM |  | > 10 µM |  | > 10 µM
Cn1c(=O)c2c(nc(C(=N)SCC(=O)O)n2C)n(C)c1=O |  | > 100 µM |  | > 100 µM |  | > 100 µM |  | > 100 µM |  | > 100 µM |  | > 100 µM |  | > 100 µM |  | > 100 µM |  | 80.2 µM |  | > 100 µM
COc1ccc(-c2nccn2-c2ccc(OC)cc2)cc1 | 25.1 µM | > 80.5 µM | 17.9 µM | 65.3 µM | 41.5 µM | > 100 µM | 13 µM | 32.9 µM | 7.53 µM | 35.1 µM | 23 µM | > 75.9 µM | 15.9 | 50.3 µM | 25.3 µM | > 73.5 µM | 0.64 | 30.8 µM | 65.4 µM | > 100 µM
